Measured values taken from patent publication US8710065B2, “Tricyclic inhibitors of kinases” (AbbVie Inc., priority 2011, dated 2014).

Molecular target: T1, GST-tagged-Wee1 kinase (Homo sapiens, UniProt P30291)
T1 construct: purchased Carnabio (Carna Biosciences) 05-177
Experiment: Wee1 time-resolved fluorescence equilibrium binding assay (displacement of Oregon Green-labeled ATP-competitive kinase probe)
Details: read-out: Wee-1 inhibition (Ki)
Outline: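 Ki values derive from competitive displacement, under equilibrium, of a fast-reversible ATP-site Oregon Green kinase probe from GST-tagged Wee1, detected by time-resolved fluorescence.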

T1 sequence (P30291 whole entry): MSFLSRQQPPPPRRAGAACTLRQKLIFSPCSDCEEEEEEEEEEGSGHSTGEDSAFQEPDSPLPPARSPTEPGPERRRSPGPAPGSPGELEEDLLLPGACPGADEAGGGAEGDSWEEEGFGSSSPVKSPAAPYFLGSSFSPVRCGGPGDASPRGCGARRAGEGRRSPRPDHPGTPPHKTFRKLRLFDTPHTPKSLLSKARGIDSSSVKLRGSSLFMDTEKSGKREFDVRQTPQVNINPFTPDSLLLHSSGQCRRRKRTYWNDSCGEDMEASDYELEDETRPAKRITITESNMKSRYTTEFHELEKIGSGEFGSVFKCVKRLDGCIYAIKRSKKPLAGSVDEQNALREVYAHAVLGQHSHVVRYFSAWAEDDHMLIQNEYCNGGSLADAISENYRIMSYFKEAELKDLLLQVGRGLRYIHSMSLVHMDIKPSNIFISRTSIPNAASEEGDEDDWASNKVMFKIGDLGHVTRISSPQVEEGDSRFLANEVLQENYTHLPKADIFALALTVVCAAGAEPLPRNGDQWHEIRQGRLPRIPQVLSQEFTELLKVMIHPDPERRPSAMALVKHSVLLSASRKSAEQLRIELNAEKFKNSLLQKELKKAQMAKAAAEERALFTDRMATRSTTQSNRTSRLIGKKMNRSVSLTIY

| Ki [nM] | SMILES |
| --- | --- |
| < 10 | O=c1c2cnc(Nc3ccc4c(c3)CC(NCCF)C4)nc2n2ccnc2n1-c1c(F)cccc1Cl (stereo not shown) [Example 257, 6-(2-chloro-6-fluorophenyl)-2-({2-[(2-fluoroethyl)amino]-2,3-dihydro-1H-inden-5-yl}amino)imidazo[1,2-a]pyrimido[5,4-e]pyrimidin-5(6H)-one] |
| < 10 | CCCNC1Cc2ccc(Nc3ncc4c(=O)n(-c5c(F)cccc5Cl)c5nccn5c4n3)cc2C1 (stereo not shown) [Example 258, 6-(2-chloro-6-fluorophenyl)-2-{[2-(propylamino)-2,3-dihydro-1H-inden-5-yl]amino}imidazo[1,2-a]pyrimido[5,4-e]pyrimidin-5(6H)-one] |
| < 10 | O=c1c2cnc(Nc3ccc4c(c3)CC(N3CCCC3)C4)nc2n2ccnc2n1-c1c(F)cccc1Cl (stereo not shown) [Example 259, 6-(2-chloro-6-fluorophenyl)-2-{[2-(pyrrolidin-1-yl)-2,3-dihydro-1H-inden-5-yl]amino}imidazo[1,2-a]pyrimido[5,4-e]pyrimidin-5(6H)-one] |
| < 10 | CN(C)CCN1CCN(c2ccc(Nc3ncc4c(=O)n(-c5ccccc5Cl)c5nccn5c4n3)cc2)CC1 [Example 260, 6-(2-chlorophenyl)-2-[(4-{4-[2-(dimethylamino)ethyl]piperazin-1-yl}phenyl)amino]imidazo[1,2-a]pyrimido[5,4-e]pyrimidin-5(6H)-one] |
| < 10 | CN(C)CCCN(C)c1ccc(Nc2ncc3c(=O)n(-c4ccccc4Cl)c4nccn4c3n2)cc1 [Example 261, 6-(2-chlorophenyl)-2-[(4-{[3-(dimethylamino)propyl](methyl)amino}phenyl)amino]imidazo[1,2-a]pyrimido[5,4-e]pyrimidin-5(6H)-one] |
| < 10 | CCN(CCN(C)C)c1ccc(Nc2ncc3c(=O)n(-c4ccccc4Cl)c4nccn4c3n2)cc1 [Example 262, 6-(2-chlorophenyl)-2-[(4-{[2-(dimethylamino)ethyl](ethyl)amino}phenyl)amino]imidazo[1,2-a]pyrimido[5,4-e]pyrimidin-5(6H)-one] |
| < 10 | CN(C)CCN(C)c1ccc(Nc2ncc3c(=O)n(-c4ccccc4Cl)c4nccn4c3n2)cc1 [Example 263, 6-(2-chlorophenyl)-2-[(4-{[2-(dimethylamino)ethyl](methyl)amino}phenyl)amino]imidazo[1,2-a]pyrimido[5,4-e]pyrimidin-5(6H)-one] |
| 10 to 100 | COC[C@@H]1CCCN1c1ccc(Nc2ncc3c(=O)n(-c4ccccc4Cl)c4nccn4c3n2)cc1 [Example 264, 6-(2-chlorophenyl)-2-({4-[(2S)-2-(methoxymethyl)pyrrolidin-1-yl]phenyl}amino)imidazo[1,2-a]pyrimido[5,4-e]pyrimidin-5(6H)-one] |
| < 10 | CC(C)C(=O)N1Cc2cc(Nc3ncc4c(=O)n(-c5c(F)cccc5Cl)c5nccn5c4n3)ccc2C2(CC2)C1 [Example 265, 6-(2-chloro-6-fluorophenyl)-2-{[2′-(2-methylpropanoyl)-2′,3′-dihydro-1′H-spiro[cyclopropane-1,4′-isoquinolin]-7′-yl]amino}imidazo[1,2-a]pyrimido[5,4-e]pyrimidin-5(6H)-one] |
| < 10 | CC(C)(C)C(=O)N1Cc2cc(Nc3ncc4c(=O)n(-c5c(F)cccc5Cl)c5nccn5c4n3)ccc2C2(CC2)C1 [Example 266, 6-(2-chloro-6-fluorophenyl)-2-{[2′-(2,2-dimethylpropanoyl)-2′,3′-dihydro-1′H-spiro[cyclopropane-1,4′-isoquinolin]-7′-yl]amino}imidazo[1,2-a]pyrimido[5,4-e]pyrimidin-5(6H)-one] |
| < 10 | O=C(C1CCCC1)N1Cc2cc(Nc3ncc4c(=O)n(-c5c(F)cccc5Cl)c5nccn5c4n3)ccc2C2(CC2)C1 [Example 267, 6-(2-chloro-6-fluorophenyl)-2-{[2′-(cyclopentylcarbonyl)-2′,3′-dihydro-1′H-spiro[cyclopropane-1,4′-isoquinolin]-7′-yl]amino}imidazo[1,2-a]pyrimido[5,4-e]pyrimidin-5(6H)-one] |
| < 10 | O=c1c2cnc(Nc3ccc(NCCc4c[nH]cn4)cc3)nc2n2ccnc2n1-c1ccccc1Cl [Example 268, 6-(2-chlorophenyl)-2-[(4-{[2-(1H-imidazol-4-yl)ethyl]amino}phenyl)amino]imidazo[1,2-a]pyrimido[5,4-e]pyrimidin-5(6H)-one] |
| < 10 | O=c1c2cnc(Nc3ccc(NCCCn4ccnc4)cc3)nc2n2ccnc2n1-c1ccccc1Cl [Example 269, 6-(2-chlorophenyl)-2-[(4-{[3-(1H-imidazol-1-yl)propyl]amino}phenyl)amino]imidazo[1,2-a]pyrimido[5,4-e]pyrimidin-5(6H)-one] |
| < 10 | O=c1c2cnc(Nc3ccc(N4CCSCC4)cc3)nc2n2ccnc2n1-c1ccccc1Cl [Example 270, 6-(2-chlorophenyl)-2-{[4-(thiomorpholin-4-yl)phenyl]amino}imidazo[1,2-a]pyrimido[5,4-e]pyrimidin-5(6H)-one] |
| < 10 | CC(C)NCCN(c1ccc(Nc2ncc3c(=O)n(-c4ccccc4Cl)c4nccn4c3n2)cc1)C(C)C [Example 271, 6-(2-chlorophenyl)-2-[(4-{propan-2-yl[2-(propan-2-ylamino)ethyl]amino}phenyl)amino]imidazo[1,2-a]pyrimido[5,4-e]pyrimidin-5(6H)-one] |
| 10 to 100 | NC(=O)C1CCCN(c2ccc(Nc3ncc4c(=O)n(-c5ccccc5Cl)c5nccn5c4n3)cc2)C1 (stereo not shown) [Example 272, 1-(4-{[6-(2-chlorophenyl)-5-oxo-5,6-dihydroimidazo[1,2-a]pyrimido[5,4-e]pyrimidin-2-yl]amino}phenyl)piperidine-3-carboxamide] |
| < 10 | CN1CCCC1CCNc1ccc(Nc2ncc3c(=O)n(-c4c(Cl)cccc4Cl)c4nccn4c3n2)cc1 (stereo not shown) [Example 273, 6-(2,6-dichlorophenyl)-2-[(4-{[2-(1-methylpyrrolidin-2-yl)ethyl]amino}phenyl)amino]imidazo[1,2-a]pyrimido[5,4-e]pyrimidin-5(6H)-one] |
| < 10 | CC(C)C(=O)N1Cc2cc(Nc3ncc4c(=O)n(-c5c(Cl)cccc5Cl)c5nccn5c4n3)ccc2C2(CC2)C1 [Example 274, 6-(2,6-dichlorophenyl)-2-{[2′-(2-methylpropanoyl)-2′,3′-dihydro-1′H-spiro[cyclopropane-1,4′-isoquinolin]-7′-yl]amino}imidazo[1,2-a]pyrimido[5,4-e]pyrimidin-5(6H)-one] |
| < 10 | O=C(C1CC1)N1Cc2cc(Nc3ncc4c(=O)n(-c5c(Cl)cccc5Cl)c5nccn5c4n3)ccc2C2(CC2)C1 [Example 275, 2-{[2′-(cyclopropylcarbonyl)-2′,3′-dihydro-1′H-spiro[cyclopropane-1,4′-isoquinolin]-7′-yl]amino}-6-(2,6-dichlorophenyl)imidazo[1,2-a]pyrimido[5,4-e]pyrimidin-5(6H)-one] |
| < 10 | CC(C)(C)C(=O)N1Cc2cc(Nc3ncc4c(=O)n(-c5c(Cl)cccc5Cl)c5nccn5c4n3)ccc2C2(CC2)C1 [Example 276, 6-(2,6-dichlorophenyl)-2-{[2′-(2,2-dimethylpropanoyl)-2′,3′-dihydro-1′H-spiro[cyclopropane-1,4′-isoquinolin]-7′-yl]amino}imidazo[1,2-a]pyrimido[5,4-e]pyrimidin-5(6H)-one] |
| 10 to 100 | O=c1c2cnc(Nc3cnc4c(c3)CNCC4)nc2n2ccnc2n1-c1c(F)cccc1Cl [Example 277, 6-(2-chloro-6-fluorophenyl)-2-(5,6,7,8-tetrahydro-1,6-naphthyridin-3-ylamino)imidazo[1,2-a]pyrimido[5,4-e]pyrimidin-5(6H)-one] |
| < 10 | O=c1c2cnc(Nc3ccc4c(c3)CNCC43CC3)nc2n2ccnc2n1-c1cccc(O)c1Cl [Example 278, 6-(2-chloro-3-hydroxyphenyl)-2-(2′,3′-dihydro-1′H-spiro[cyclopropane-1,4′-isoquinolin]-7′-ylamino)imidazo[1,2-a]pyrimido[5,4-e]pyrimidin-5(6H)-one] |
| < 10 | Cc1cc(O)ccc1-n1c(=O)c2cnc(Nc3ccc4c(c3)CNCC43CC3)nc2n2ccnc12 [Example 279, 2-(2′,3′-dihydro-1′H-spiro[cyclopropane-1,4′-isoquinolin]-7′-ylamino)-6-(4-hydroxy-2-methylphenyl)imidazo[1,2-a]pyrimido[5,4-e]pyrimidin-5(6H)-one] |
| 10 to 100 | CC1(C)CN(CC(F)F)Cc2cc(Nc3ncc4c(=O)n(-c5c(F)cccc5Cl)c5nccn5c4n3)ccc21 [Example 280, 6-(2-chloro-6-fluorophenyl)-2-{[2-(2,2-difluoroethyl)-4,4-dimethyl-1,2,3,4-tetrahydroisoquinolin-7-yl]amino}imidazo[1,2-a]pyrimido[5,4-e]pyrimidin-5(6H)-one] |
| < 10 | CC1(C)CN(CCF)Cc2cc(Nc3ncc4c(=O)n(-c5c(F)cccc5Cl)c5nccn5c4n3)ccc21 [Example 281, 6-(2-chloro-6-fluorophenyl)-2-{[2-(2-fluoroethyl)-4,4-dimethyl-1,2,3,4-tetrahydroisoquinolin-7-yl]amino}imidazo[1,2-a]pyrimido[5,4-e]pyrimidin-5(6H)-one] |
| < 10 | O=c1c2cnc(Nc3ccc(N4CCC(N5CCCCC5)CC4)cc3)nc2n2ccnc2n1-c1c(Cl)cccc1Cl [Example 282, 2-{[4-(1,4′-bipiperidin-1′-yl)phenyl]amino}-6-(2,6-dichlorophenyl)imidazo[1,2-a]pyrimido[5,4-e]pyrimidin-5(6H)-one] |
| < 10 | CN(C)[C@@H]1CCN(c2ccc(Nc3ncc4c(=O)n(-c5c(Cl)cccc5Cl)c5nccn5c4n3)cc2)C1 [Example 283, 6-(2,6-dichlorophenyl)-2-({4-[(3R)-3-(dimethylamino)pyrrolidin-1-yl]phenyl}amino)imidazo[1,2-a]pyrimido[5,4-e]pyrimidin-5(6H)-one] |
| < 10 | CN(C)CCNc1ccc(Nc2ncc3c(=O)n(-c4c(Cl)cccc4Cl)c4nccn4c3n2)cc1 [Example 284, 6-(2,6-dichlorophenyl)-2-[(4-{[2-(dimethylamino)ethyl]amino}phenyl)amino]imidazo[1,2-a]pyrimido[5,4-e]pyrimidin-5(6H)-one] |
